From publication PMC11416940, “Identification and characterization of a small molecule BFstatin inhibiting BrpR, the transcriptional regulator for biofilm formation of Vibrio vulnificus” (Frontiers in Microbiology, 2024)
pKd: −log10 of the molar value.

Target: T1, BrpR
T1 construct: His6-tagged BrpR (brpR gene on pET-28a(+), expressed in E. coli BL21 (DE3))
Experiment: microscale thermophoresis (MST) with labeled purified His6-BrpR; supported by EMSA inhibition of promoter DNA binding
Design: species or system Vibrio vulnificus

In the case of `CCCNC(=O)CC(=O)Nc1cc(F)ccc1Cl` [175C05, N1-(2-chloro-5-fluorophenyl)-N3-propylmalonamide], the pKd was 5.15.
